Laboratory results from US6660772B2, “Use of 2-amino-1-(4-hydroxy-2-methanesulfonamidophenyl)ethanol for treating urinary incontinence” (Boehringer Ingelheim Pharma KG, priority 2001, dated 2003).

Tested on: dog
Assay: Activity (maximum contraction) in the dog compared with noradrenaline
Conditions: percentage of contraction compared with noradrenaline
Method: The efficacy and selectivity of the compound according to the invention is determined as follows, using the same findings as described in 1:
Maximum contraction in the dog and activity on human urethra are percentages of contraction compared with noradrenaline. Selectivity in the dog is the difference obtained from the percentage contraction of the dog's femoral artery at 10^−5 M and percentage contraction of the carotid artery in the dog at 10^−5 M.

CS(=O)(=O)Nc1cc(C(O)CN)ccc1O (centres unmarked) [Compound 1, 2-amino-1-(4-hydroxy-3-methanesulfonamidophenyl)ethanol]
Activity in the Dog (maximum contraction): 103%

CS(=O)(=O)Nc1ccc(F)c([C@@H](O)CN)c1 [Compound 2, (−)-R-2-Amino-1-(2-fluoro-5-methanesulfonamidophenyl)ethanol]
Activity in the Dog (maximum contraction): 79%
